Assay results as given in ChEMBL document CHEMBL1268977, “Efficient synthesis, spectral analysis and antimicrobial studies of nitrogen and sulfur containing spiro heterocycles from 2,4-diaryl-3-azabicyclo[3.3.1]nonan-9-ones” (2010).
In brackets after ≈: the same amount, converted by molar mass. Activity calls are given as the source filed them. No cut-off for these calls is given here.

Experiments:
Staphylococcus aureus = test: Antibacterial activity against Staphylococcus aureus ATCC 25930 after 24 hrs by serial dilution method; type: functional; details: ATCC 25930, 24 h
Bacillus subtilis [1] = test: Antibacterial activity against Bacillus subtilis ATCC 530 after 24 hrs by serial dilution method; type: functional; details: ATCC 530, 24 h
Salmonella typhi = test: Antibacterial activity against Salmonella typhi ATCC 25021 after 24 hrs by serial dilution method; type: functional, Salmonella enterica subsp. enterica serovar Typhi; details: Salmonella enterica, ATCC 25021, 24 h
Escherichia coli [2] = test: Antibacterial activity against Escherichia coli ATCC 26032 after 24 hrs by serial dilution method; type: functional; details: ATCC 26032, 24 h
Klebsiella pneumoniae [3] = test: Antibacterial activity against Klebsiella pneumoniae ATCC 16425 after 24 hrs by serial dilution method; type: functional; details: ATCC 16425, 24 h
Candida albicans = test: Antifungal activity against Candida albicans ATCC 3430 after 72 to 96 hrs by serial dilution method; type: functional
Cryptococcus neoformans = test: Antifungal activity against Cryptococcus neoformans ATCC 3235 after 72 to 96 hrs by serial dilution method; type: functional
Rhizopus = test: Antifungal activity against Rhizopus species ATCC 2842 after 72 to 96 hrs by serial dilution method; type: functional
Aspergillus niger [4] = test: Antifungal activity against Aspergillus niger ATCC 635 after 72 to 96 hrs by serial dilution method; type: functional
Aspergillus flavus = test: Antifungal activity against Aspergillus flavus ATCC 525 after 72 to 96 hrs by serial dilution method; type: functional
Aspergillus niger [5] = test: Antifungal activity against Aspergillus niger ATCC 635 at 200 ug/ml after 72 to 96 hrs by serial dilution method; type: functional, organism-based
Escherichia coli [6] = test: Antibacterial activity against Escherichia coli ATCC 26032 at 200 ug/ml after 24 hrs by serial dilution method; type: functional, organism-based
Bacillus subtilis [7] = test: Antibacterial activity against Bacillus subtilis ATCC 530 at 200 ug/ml after 24 hrs by serial dilution method; type: functional, organism-based
Klebsiella pneumoniae [8] = test: Antibacterial activity against Klebsiella pneumoniae ATCC 16425 at 200 ug/ml after 24 hrs by serial dilution method; type: functional, organism-based

| Structure (SMILES) | MIC (Staphylococcus aureus) [µg/mL] | MIC (Bacillus subtilis [1]) [µg/mL] | MIC (Salmonella typhi) [µg/mL] | MIC (Escherichia coli [2]) [µg/mL] | MIC (Klebsiella pneumoniae [3]) [µg/mL] | MIC (Candida albicans) [µg/mL] | MIC (Cryptococcus neoformans) [µg/mL] | MIC (Rhizopus) [µg/mL] | MIC (Aspergillus niger [4]) [µg/mL] | MIC (Aspergillus flavus) [µg/mL] | inhibition (Aspergillus niger [5]) | inhibition (Escherichia coli [6]) | inhibition (Bacillus subtilis [7]) | inhibition (Klebsiella pneumoniae [8]) |
| --- | --- | --- | --- | --- | --- | --- | --- | --- | --- | --- | --- | --- | --- | --- |
| CC(=O)NC1=NN(C(C)=O)C2(S1)C1CCCC2C(c2ccc(C)cc2)NC1c1ccc(C)cc1 (stereo not given) | 25 (≈ 52.4 µM) | 12.5 (≈ 26.2 µM) | 100 (≈ 210 µM) | 100 (≈ 210 µM) | 12.5 (≈ 26.2 µM) | 25 (≈ 52.4 µM) | 50 (≈ 105 µM) | 25 (≈ 52.4 µM) | 50 (≈ 105 µM) | 12.5 (≈ 26.2 µM) | – | – | – | – |
| CC(=O)NC1=NN(C(C)=O)C2(S1)C1CCCC2C(c2ccccc2)N(C(C)=O)C1c1ccccc1 (stereo not given) | 12.5 (≈ 25.5 µM) | 100 (≈ 204 µM) | 25 (≈ 51 µM) | 50 (≈ 102 µM) | 100 (≈ 204 µM) | 100 (≈ 204 µM) | 50 (≈ 102 µM) | 50 (≈ 102 µM) | 25 (≈ 51 µM) | 100 (≈ 204 µM) | – | – | – | – |
| CCC(=O)N(C1=NN(C(=O)CC)C2(S1)C1CCCC2C(c2ccccc2Cl)NC1c1ccccc1Cl)c1ccccc1 (stereo not given) | 6.25 (≈ 10.1 µM) | 50 (≈ 80.4 µM) | 25 (≈ 40.2 µM) | 50 (≈ 80.4 µM) | 25 (≈ 40.2 µM) | 50 (≈ 80.4 µM) | 200 (≈ 322 µM) | 100 (≈ 161 µM) | 50 (≈ 80.4 µM) | 50 (≈ 80.4 µM) | – | – | – | – |
| COc1ccc(C2C3CCCC(C(c4ccc(OC)cc4)N2C(C)=O)C32SC(NC(C)=O)=NN2C(C)=O)cc1 (stereo not given) | 25 (≈ 45.4 µM) | 50 (≈ 90.8 µM) | 50 (≈ 90.8 µM) | 50 (≈ 90.8 µM) | 25 (≈ 45.4 µM) | 25 (≈ 45.4 µM) | 25 (≈ 45.4 µM) | 100 (≈ 182 µM) | – | 12.5 (≈ 22.7 µM) | inactive | – | – | – |
| CC(=O)NC1=NN(C(C)=O)C2(S1)C1CCCC2C(c2ccccc2Cl)NC1c1ccccc1Cl (stereo not given) | 12.5 (≈ 24.2 µM) | 12.5 (≈ 24.2 µM) | 12.5 (≈ 24.2 µM) | 12.5 (≈ 24.2 µM) | 25 (≈ 48.3 µM) | 12.5 (≈ 24.2 µM) | 50 (≈ 96.6 µM) | 12.5 (≈ 24.2 µM) | – | 12.5 (≈ 24.2 µM) | inactive | – | – | – |
| CCC(=O)NC1=NN(C(=O)CC)C2(S1)C1CCCC2C(c2ccccc2)N(C(=O)CC)C1c1ccccc1 (stereo not given) | 12.5 (≈ 23.5 µM) | 50 (≈ 93.9 µM) | 25 (≈ 46.9 µM) | 50 (≈ 93.9 µM) | 50 (≈ 93.9 µM) | 50 (≈ 93.9 µM) | 6.25 (≈ 11.7 µM) | 12.5 (≈ 23.5 µM) | 50 (≈ 93.9 µM) | 12.5 (≈ 23.5 µM) | – | – | – | – |
| CCC(=O)NC1=NN(C(=O)CC)C2(S1)C1CCCC2C(c2cccc(F)c2)NC1c1cccc(F)c1 (stereo not given) | 100 (≈ 195 µM) | 6.25 (≈ 12.2 µM) | 6.25 (≈ 12.2 µM) | 6.25 (≈ 12.2 µM) | 50 (≈ 97.5 µM) | 25 (≈ 48.8 µM) | 25 (≈ 48.8 µM) | 25 (≈ 48.8 µM) | 12.5 (≈ 24.4 µM) | 50 (≈ 97.5 µM) | – | – | – | – |
| CC(=O)NC1=NN(C(C)=O)C2(S1)C1CCCC2C(c2ccc(F)cc2)NC1c1ccc(F)cc1 (stereo not given) | 50 (≈ 103 µM) | 6.25 (≈ 12.9 µM) | 6.25 (≈ 12.9 µM) | 12.5 (≈ 25.8 µM) | 12.5 (≈ 25.8 µM) | 6.25 (≈ 12.9 µM) | 12.5 (≈ 25.8 µM) | 50 (≈ 103 µM) | 6.25 (≈ 12.9 µM) | 6.25 (≈ 12.9 µM) | – | – | – | – |
| COc1cccc(C2NC(c3cccc(OC)c3)C3CCCC2C32SC(NC(C)=O)=NN2C(C)=O)c1 (stereo not given) | 100 (≈ 197 µM) | 50 (≈ 98.3 µM) | – | 200 (≈ 393 µM) | 100 (≈ 197 µM) | 25 (≈ 49.2 µM) | 50 (≈ 98.3 µM) | 50 (≈ 98.3 µM) | 100 (≈ 197 µM) | 200 (≈ 393 µM) | – | inactive | – | – |
| CN[C@@H]1[C@H](O[C@H]2[C@H](O[C@H]3[C@H](O)[C@@H](O)[C@H](N=C(N)N)[C@@H](O)[C@@H]3N=C(N)N)O[C@@H](C)[C@]2(O)C=O)O[C@@H](CO)[C@H](O)[C@H]1O [STREPTOMYCIN] | 50 (≈ 86 µM) | 12.5 (≈ 21.5 µM) | 50 (≈ 86 µM) | 12.5 (≈ 21.5 µM) | 25 (≈ 43 µM) | – | – | – | – | – | – | – | – | – |
| C[C@@H]1[C@H](O)[C@@H](C)/C=C/C=C/C=C/C=C/C=C/C=C/C=C/[C@H](O[C@@H]2O[C@H](C)[C@@H](O)[C@H](N)[C@@H]2O)C[C@@H]2O[C@](O)(C[C@@H](O)C[C@@H](O)[C@H](O)CC[C@@H](O)C[C@@H](O)CC(=O)O[C@H]1C)C[C@H](O)[C@H]2C(=O)O [AMPHOTERICIN B] | – | – | – | – | – | 25 (≈ 27.1 µM) | 25 (≈ 27.1 µM) | 25 (≈ 27.1 µM) | 50 (≈ 54.1 µM) | 50 (≈ 54.1 µM) | – | – | – | – |
| CCC(=O)NC1=NN(C(=O)CC)C2(S1)C1CCCC2C(c2ccc(OC)cc2)N(C(=O)CC)C1c1ccc(OC)cc1 (stereo not given) | 25 (≈ 42.2 µM) | – | 25 (≈ 42.2 µM) | 50 (≈ 84.4 µM) | 25 (≈ 42.2 µM) | 25 (≈ 42.2 µM) | 50 (≈ 84.4 µM) | 100 (≈ 169 µM) | 25 (≈ 42.2 µM) | 100 (≈ 169 µM) | – | – | inactive | – |
| CC(=O)N(C1=NN(C(C)=O)C2(S1)C1CCCC2C(c2ccc(Cl)cc2)N(C(C)=O)C1c1ccc(Cl)cc1)c1ccccc1 (stereo not given) | 12.5 (≈ 19.7 µM) | 25 (≈ 39.3 µM) | 12.5 (≈ 19.7 µM) | 25 (≈ 39.3 µM) | 50 (≈ 78.7 µM) | 100 (≈ 157 µM) | 50 (≈ 78.7 µM) | 12.5 (≈ 19.7 µM) | – | 200 (≈ 315 µM) | inactive | – | – | – |
| CCC(=O)NC1=NN(C(=O)CC)C2(S1)C1CCCC2C(c2cccc(OC)c2)N(C(=O)CC)C1c1cccc(OC)c1 (stereo not given) | 100 (≈ 169 µM) | 50 (≈ 84.4 µM) | 200 (≈ 337 µM) | 50 (≈ 84.4 µM) | – | 25 (≈ 42.2 µM) | 200 (≈ 337 µM) | 50 (≈ 84.4 µM) | – | 25 (≈ 42.2 µM) | inactive | – | – | inactive |
| CCC(=O)NC1=NN(C(=O)CC)C2(S1)C1CCCC2C(c2ccc(Cl)cc2)NC1c1ccc(Cl)cc1 (stereo not given) | 200 (≈ 367 µM) | 12.5 (≈ 22.9 µM) | 12.5 (≈ 22.9 µM) | 25 (≈ 45.8 µM) | 100 (≈ 183 µM) | 12.5 (≈ 22.9 µM) | 25 (≈ 45.8 µM) | 12.5 (≈ 22.9 µM) | 12.5 (≈ 22.9 µM) | 50 (≈ 91.7 µM) | – | – | – | – |
| CC(=O)N(C1=NN(C(C)=O)C2(S1)C1CCCC2C(c2ccccc2Cl)NC1c1ccccc1Cl)c1ccccc1 (stereo not given) | 25 (≈ 42.1 µM) | 12.5 (≈ 21.1 µM) | 100 (≈ 168 µM) | 50 (≈ 84.2 µM) | 100 (≈ 168 µM) | 6.25 (≈ 10.5 µM) | 50 (≈ 84.2 µM) | 25 (≈ 42.1 µM) | 12.5 (≈ 21.1 µM) | 100 (≈ 168 µM) | – | – | – | – |
| CCC(=O)NC1=NN(C(=O)CC)C2(S1)C1CCCC2C(c2ccc(C)cc2)NC1c1ccc(C)cc1 (stereo not given) | 50 (≈ 99.1 µM) | 100 (≈ 198 µM) | 50 (≈ 99.1 µM) | 25 (≈ 49.5 µM) | 25 (≈ 49.5 µM) | 25 (≈ 49.5 µM) | 25 (≈ 49.5 µM) | 50 (≈ 99.1 µM) | 100 (≈ 198 µM) | 200 (≈ 396 µM) | – | – | – | – |
| CCC(=O)NC1=NN(C(=O)CC)C2(S1)C1CCCC2C(c2ccc(F)cc2)NC1c1ccc(F)cc1 (stereo not given) | 25 (≈ 48.8 µM) | 6.25 (≈ 12.2 µM) | 6.25 (≈ 12.2 µM) | 12.5 (≈ 24.4 µM) | 25 (≈ 48.8 µM) | 6.25 (≈ 12.2 µM) | 25 (≈ 48.8 µM) | 6.25 (≈ 12.2 µM) | 12.5 (≈ 24.4 µM) | 6.25 (≈ 12.2 µM) | – | – | – | – |
| CCC(=O)NC1=NN(C(=O)CC)C2(S1)C1CCCC2C(c2ccccc2Cl)NC1c1ccccc1Cl (stereo not given) | 50 (≈ 91.7 µM) | 12.5 (≈ 22.9 µM) | 25 (≈ 45.8 µM) | 50 (≈ 91.7 µM) | 25 (≈ 45.8 µM) | 12.5 (≈ 22.9 µM) | 50 (≈ 91.7 µM) | 100 (≈ 183 µM) | 12.5 (≈ 22.9 µM) | 50 (≈ 91.7 µM) | – | – | – | – |
| CC(=O)NC1=NN(C(C)=O)C2(S1)C1CCCC2C(c2ccc(Cl)cc2)NC1c1ccc(Cl)cc1 (stereo not given) | 25 (≈ 48.3 µM) | – | 25 (≈ 48.3 µM) | 12.5 (≈ 24.2 µM) | 50 (≈ 96.6 µM) | 25 (≈ 48.3 µM) | 6.25 (≈ 12.1 µM) | 200 (≈ 386 µM) | 25 (≈ 48.3 µM) | 50 (≈ 96.6 µM) | – | – | inactive | – |
| CC(=O)NC1=NN(C(C)=O)C2(S1)C1CCCC2C(c2cccc(F)c2)NC1c1cccc(F)c1 (stereo not given) | 50 (≈ 103 µM) | 25 (≈ 51.6 µM) | 6.25 (≈ 12.9 µM) | 6.25 (≈ 12.9 µM) | 6.25 (≈ 12.9 µM) | 25 (≈ 51.6 µM) | 25 (≈ 51.6 µM) | 12.5 (≈ 25.8 µM) | 25 (≈ 51.6 µM) | 6.25 (≈ 12.9 µM) | – | – | – | – |
